As a reminder, the IC50 is the concentration that inhibits the measured activity by half.

This note sets out measurements from the Kinase Knowledgebase extract (Sharma et al. 2016).

Sequence of MAPK14 (human) (Q16539 whole entry, looked up): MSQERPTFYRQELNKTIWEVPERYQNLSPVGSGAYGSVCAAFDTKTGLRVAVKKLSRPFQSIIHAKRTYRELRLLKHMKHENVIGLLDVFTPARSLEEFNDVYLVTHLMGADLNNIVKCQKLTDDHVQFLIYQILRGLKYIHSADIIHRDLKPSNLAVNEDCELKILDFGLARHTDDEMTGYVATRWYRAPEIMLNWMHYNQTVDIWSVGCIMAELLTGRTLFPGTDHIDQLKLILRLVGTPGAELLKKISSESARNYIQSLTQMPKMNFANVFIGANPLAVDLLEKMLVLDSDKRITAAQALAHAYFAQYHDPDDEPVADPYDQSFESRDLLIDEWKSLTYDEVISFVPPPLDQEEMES

This assay addresses MAPK14 (human) (UniProt Q16539). In words: Inhibition of MAPK14 Kinase Activity. As to conditions: THP.1 monocytic.
The compound `Cc1cc(OCc2ccc(F)cc2F)c(Br)c(=O)n1Cc1cnc(CN(C)C)cn1` came in with an IC50 of 1 to 25 µM.
For `Cc1c(C2CO2)c(OCc2ccc(F)cc2F)c(Br)c(=O)n1-c1c(F)cccc1F` (configuration not stated) the value was 25 to 100 µM; for `O=c1c(Br)c(NCc2cccc(C(F)(F)F)c2)ccn1Cc1cccc(F)c1`, 1 to 25 µM; for `CNC(=O)c1cnc(Cn2c(C)cc(OCc3ccc(F)cc3F)c(Br)c2=O)cn1`, 1 to 25 µM.
For `C=CCNc1c(I)c(C)n(-c2c(F)cccc2F)c(=O)c1Br` the value was 1 to 25 µM.
As to `COCCNC(=O)c1cccc(-n2c(C)cc(OCc3ccc(F)cc3F)c(Br)c2=O)c1`, the IC50 is less than 1 µM.
In turn, `Cc1cc(OCc2ccc(F)cc2F)c(Br)c(=O)n1Cc1cnc(C(=O)N2CCN(C)CC2)cn1` had an IC50 of less than 1 µM.
For `N#Cc1ccc(COc2ccn(Cc3cccc(F)c3)c(=O)c2Br)cc1` the value was 25 to 100 µM; for `Cc1cc(OCc2ccc(F)cc2F)c(Br)c(=O)n1-c1cccc(CNC(=O)N(C)C)c1`, 1 to 25 µM.
For `Cc1cc(NCc2ccc(F)cc2F)c(Cl)c(=O)n1-c1c(F)cccc1F` the value was 1 to 25 µM; for `O=c1c(Br)c(OCc2ccccc2)c(Br)cn1Cc1ccccc1`, greater than 100 µM; for `Cc1cc(OCc2ccc(F)cc2F)c(Br)c(=O)n1Cc1cccc(C(=O)O)c1`, 1 to 25 µM.
With `C=Cc1c(OCc2ccccc2)ccn(Cc2ccccc2)c1=O`, the IC50 was in the range of 25 to 100 µM.
Take `Cc1cc(OCc2ccc(F)cc2F)c(Cl)c(=O)n1-c1c(F)cccc1F`: the IC50 was less than 1 µM.
For `C#Cc1c(OCc2ccccc2)ccn(Cc2cccc(F)c2)c1=O` the value was 1 to 25 µM; for `Cc1cc(OCc2ccc(F)cc2F)c(Br)c(=O)n1-c1ccc(C(=O)NCCCN)cc1`, less than 1 µM; for `Cc1cc(OCc2ccc(F)cc2F)c(Br)c(=O)n1Cc1cccc(CN)c1`, less than 1 µM.
For `O=c1c(Br)c(OCc2ccc(C(F)(F)F)cc2)ccn1Cc1cccc(F)c1` the value was 1 to 25 µM; for `O=c1[nH]ccc(OCc2ccccc2)c1Br`, greater than 100 µM; for `O=c1c(Br)c(OCc2ccccc2)ccn1Cc1ccc(Cl)cc1`, less than 1 µM.
For `Cc1cc(OCc2ccc(F)cc2F)c(Br)c(=O)n1-c1ccc(C(=O)NCCN)cc1` the value was less than 1 µM.
Consider `Cc1cc(OCc2ccc(F)cc2F)c(Br)c(=O)n1-c1cccc(C(=O)NC(C)C)c1`, for which the half-inhibitory concentration (IC50) is less than 1 µM.
For `Cc1cc(OCc2ccc(F)cc2F)c(Br)c(=O)n1Cc1ccc(S(=O)(=O)N(C)C)cc1` the value was less than 1 µM; for `Cc1cc(OCc2ccc(F)cc2F)c(Br)c(=O)n1-c1ccc(C(N)=O)cc1`, 1 to 25 µM.
The compound `Cc1cc(OCc2ccc(F)cc2F)c(Br)c(=O)n1-c1ccc(C(C)(C)O)cn1` displayed an IC50 greater than 100 µM.
In turn, `Cc1ccc(CN(C)C)cc1-n1c(C)cc(OCc2ccc(F)cc2F)c(Br)c1=O` yielded an IC50 of 1 to 25 µM.
For `Cc1cc(OCc2ccc(F)cc2F)c(Br)c(=O)n1-c1c(F)cc(F)cc1F` the value was less than 1 µM; for `CC(C)(C)c1ccc(Cn2ccc(OCc3ccc(F)cc3)c(Br)c2=O)cc1`, 1 to 25 µM.
Take `O=c1c(Cl)c(OCc2ccc(F)cc2F)cc(CO)n1-c1c(F)cccc1F`: the IC50 is less than 1 µM.
Take `O=c1c(Br)c(NCc2cccc(F)c2)ccn1Cc1cccc(F)c1`: the half-maximal inhibitory concentration (IC50) fell in the range of 1 to 25 µM.
For `Cc1c(Br)c(OCc2ccccc2)c(Br)c(=O)n1Cc1ccccc1` the value was 25 to 100 µM; for `O=c1cc(OCc2cccc(Cl)c2)ccn1Cc1ccccc1`, 25 to 100 µM; for `Cc1cc(OCc2ccc(F)cc2F)c(Br)c(=O)n1-c1cc(CO)ccc1Cl`, less than 1 µM.
For `O=Cc1cc(OCc2ccc(F)cc2F)c(Br)c(=O)n1-c1c(F)cccc1F` the value was less than 1 µM; for `Cc1cc(OCc2ccc(F)cc2F)c(Br)c(=O)n1Cc1ccc(C(=O)N(C)CCO)cc1`, less than 1 µM; for `Cc1cc(OCc2ccc(F)cc2F)c(Br)c(=O)n1-c1cccc(CNC(N)=O)c1`, 1 to 25 µM.
In the case of `Cc1cc(CCc2ccccc2)c(Br)c(=O)n1Cc1cccc(F)c1`, the IC50 lay within 1 to 25 µM.
For `N#Cc1ccccc1Cn1ccc(OCc2ccccc2)c(Br)c1=O` the value was 1 to 25 µM; for `O=c1c(Br)c(OCc2ccc(F)cc2F)cc(CN2CCOCC2)n1-c1c(F)cccc1F`, less than 1 µM.
For `NCc1ccccc1Cn1ccc(OCc2ccccc2)c(Br)c1=O` the value was 1 to 25 µM; for `Cc1cc(OCc2ccc(F)cc2F)c(Br)c(=O)n1-c1ccc(C(N)=O)cc1Cl`, less than 1 µM.
In turn, `Cc1cc(OCc2ccc(F)cc2F)c(Br)c(=O)n1-c1c(F)cc(Br)cc1F` had a half-maximal inhibitory concentration (IC50) of less than 1 µM.
For `Cc1cc(OCc2ccc(F)cc2F)c(Br)c(=O)n1Cc1cccc(CN2CCCCC2)c1` the value was less than 1 µM.
For `O=c1c(Br)c(OCc2ccccc2)ccn1Cc1cccc(F)c1` the value was less than 1 µM.
For `Cc1cc(OCc2ccc(F)cc2F)c(Br)c(=O)n1-c1cccc(CNC(=O)CO)c1` the value was 1 to 25 µM; for `O=c1c(Br)c(NCc2ccc(F)cc2C(F)(F)F)ccn1Cc1cccc(F)c1`, greater than 100 µM; for `Cc1cccc(COc2ccn(Cc3cccc(F)c3)c(=O)c2Br)c1`, less than 1 µM.
Compound `O=c1c(I)c(OCc2ccccc2)ccn1Cc1ccccc1` returned a concentration for half-maximal inhibition (IC50) of 1 to 25 µM.
In turn, `Cc1cc(OCc2ccc(F)cc2F)c(Br)c(=O)n1-c1cccc(C(=O)N(C)CCO)c1` displayed a 50% inhibitory concentration (IC50) of 1 to 25 µM.
For `Cc1ncc(Cn2c(C)cc(OCc3ccc(F)cc3F)c(Cl)c2=O)c(N)n1` the value was 1 to 25 µM; for `O=c1c(Br)c(OCc2ccc(F)cc2F)cc(CO)n1-c1c(F)cc(F)cc1F`, less than 1 µM; for `Cc1cc(OCc2ccc(F)cc2F)c(Cl)c(=O)n1-c1cc(CN)ccc1F`, less than 1 µM.
For `Cc1cc(OCc2ccc(F)cc2F)c(Br)c(=O)n1-c1c(F)c(Br)c(O)c(Br)c1F` the value was 1 to 25 µM; for `COC(=O)NCc1cccc(-n2c(C)cc(OCc3ccc(F)cc3F)c(Br)c2=O)c1`, 1 to 25 µM.
For `CC(=O)NCc1cccc(Cn2c(C)cc(OCc3ccc(F)cc3F)c(Br)c2=O)c1` the value was less than 1 µM.
In turn, `O=c1cc(OCc2c(Cl)cccc2Cl)ccn1Cc1ccccc1` gave an IC50 greater than 100 µM.
For `Cc1cc(OCc2ccc(F)cc2F)c(Br)c(=O)n1Cc1ccccc1CN` the value was 1 to 25 µM; for `Cc1ccc(CO)cc1-n1c(C)cc(OCc2ccc(F)cc2F)c(Cl)c1=O`, less than 1 µM; for `O=c1c(Cl)c(OCc2ccc(F)cc2F)cc(CO)n1-c1c(F)cc(F)cc1F`, less than 1 µM.
For `Cc1cc(OCc2ccc(F)cc2F)c(Cl)c(=O)n1-c1cc(CO)ccc1Cl` the value was less than 1 µM; for `Cc1cc(OCc2ccc(F)cc2F)c(Br)c(=O)n1-c1cccc(C(=O)NCCO)c1`, less than 1 µM; for `Cc1cc(OCc2ccc(F)cc2F)c(Br)c(=O)n1-c1cccc(C(=O)NCCN(C)C)c1`, less than 1 µM.
For `Cc1cc(OCc2ccc(F)cc2F)c(Br)c(=O)n1-c1c(F)cc(N(C)C)cc1F` the value was less than 1 µM; for `Cc1cc(OCc2ccc(F)cc2F)c(Br)c(=O)n1-c1cc(CO)ccc1F`, 1 to 25 µM.
`Cc1c(C=O)c(OCc2ccc(F)cc2F)c(Br)c(=O)n1-c1c(F)cccc1F` registered an IC50 of 25 to 100 µM.
For `O=c1c(Br)c(OCc2ccccc2)ccn1CC1CCNCC1` the value was 25 to 100 µM; for `Cc1ccc(C(C)(C)O)cc1-n1c(C)cc(OCc2ccc(F)cc2F)c(Br)c1=O`, less than 1 µM.
